Measurements taken from US12458702B2 (NATIONAL TAIWAN UNIVERSITY, priority 2022, dated 2025).
Entries after “also recorded” stand apart in the source; their conditions may differ. Read-outs that look alike come from different tables or passages of the source. Values belong to the compound of their own block, whether it stands above or below them.

Legend:
[1] = Plasma pharmacokinetics in mice (UPLC-MS/MS); type: in vivo, BALB/c mice; conditions: for T. of 5-FU: 5-FU measured in plasma
Protocol: (§1) In the following PK experiments, BALB/c mice (six weeks of age, male) were randomly divided into two groups (n=3). […] Blood samples were collected via femoral vein by syringes at 0, 1, 3, 5, 10, 15, 30, 45 min, 1, 2, 4, and 24 h after drug administration. 50 μL blood samples were collected into 100 μL extraction solvent (EtOAc/MeOH=1:1) and vortex for 30 sec. The supernatants were separated from the mixture by centrifugation at 10,000 rpm for 10 min and frozen at −30° C. pending UPLC-MS/MS analysis. For bio-distribution experiments, the entire dissected organs were placed into round-bottom after weighting, two-milliliter microcentrifuge tubes with 1 mL of extraction solvent (EtOAc/MeOH=1:1) and 7 mm stainless steel beads, then homogenized for 30 min. All of the containers were maintained at 4° C. throughout the process. The supernatants were separated from the mixture by centrifugation at 10,000 rpm for 10 min and frozen at −30° C. The 200 μL solvent from crude organ suspensions was removed by the dryer and then dissolved in 50 μL extraction solvent. All samples were stored at −30° C. and analyzed within 24 h. All of the samples were filtered through 0.22 μm PTFE membranes into 12×32 mm vials for UPLC-MS/MS analyses using 5-FU-^15N2 as a marker. Pharmacokinetic parameters were calculated using the WinNonlin Software (version 5.2, Pharsight, MO, USA.)
(§2) Analyses were performed on an ACQUITY UPLC I-Class/Xevo TQ-XS IVD System (Waters, Milford, MA, USA) from College of Public Health, National Taiwan University. The reverse phase BEH C18 (100 mm×2.1 mm, 1.7 μm, Waters) and VanGuard BEH C18 (5 mm×2.1 mm, 1.7 μm, Waters) precolumns were used to separate the analytes. All data were acquired by MassLynx V4.2. The mobile phase consisted of a 10 mM aqueous solution of ammonium acetate (A) and acetonitrile (B), set as follows: 0.00 min 98% A→1.00 min 98% A→3.00 min 10% A→4.50 min 10% A→4.60 min 98% A→6.00 min 98% A; at a rate of 0.5 mL/min for 6.00 min with 4 μL per injection. The column oven was maintained at 60° C. Multiple reaction monitoring (MRM) method was applied in quantification. Mass spectrometer parameters were as follows: capillary voltage, 3.0 kV/3.0 kV, respectively, for positive/negative ion mode; ion source temperature, 120° C.; desolvation temperature, 450° C.; cone gas flow (N2), 50 L/h; desolvation gas flow (N2), 700 L/h; multiplier, 650 V; and collision gas pressure (Ar), 3−4×10^−3 mbar.

[2] = tested on: metastatic colorectal cancer; conditions: cited from earlier work
[3] = Organ biodistribution in mice (UPLC-MS/MS); type: in vivo, BALB/c mice; conditions: 1 hour post i.p. injection; for organ distribution of 5-FU, in words: compound 7 50 mg/kg, free 5-FU 9.5 mg/kg
Protocol: as §1
as §2, with “Mass spectrometer parameters were as follows: capillary voltage, 3.0 kV/3.0 kV, respectively, for positive/negative ion mode; ion source temperature, 120° C.; desolvation temperature, 450° C.; cone gas flow (N2), 50 L/h; desolvation gas flow (N2), 700 L/h; multiplier, 650 V; and collision gas pressure (Ar), 3−4×10^−3 mbar.” left out

[4] = tested on: orthotopic CRC mice model; experiment: Orthotopic AOM/DSS-induced CRC mice model, tumor area; type: in vivo, BALB/c mice
Protocol: Azoxymethane (AOM)-induced murine CRC model was applied to model human CRC. BALB/c mice (6 weeks of age, male) were intraperitoneally (i.p.) injected once every two weeks with AOM (10 mg/kg body weight) or the PBS vehicle. Seven days after each AOM injection, 2% dextran sulfate sodium (DSS) was given in the drinking water for four days, followed by 3 days of regular water. This cycle was repeated three times. The mice were randomly divided into eight groups (n=5), on day 60 after the first AOM treatment. […] Tumor volumes and body weights were recorded at sacrifice. The tumors were counted under a dissecting microscope, and the area covered by tumors was measured by imaging software (AxioVision LE 4.8.2.0).

NHDF = experiment: Cytotoxicity by SRB assay in low GLUT-1 normal cell line NHDF; type: cell-based; conditions: Homo sapiens, low expression GLUT-1 normal cell line
Protocol: (§3) The fraction of cell survival was calculated as follows. Survival fraction=(OD treated−blank)/(OD control−blank). […] Each experiment was repeated three times.

[5] = Body weight changes in the CRC mice model; type: in vivo, BALB/c mice; conditions: for body weight change, in words: during treatment in CRC mice model
Protocol: Azoxymethane (AOM)-induced murine CRC model was applied to model human CRC. BALB/c mice (6 weeks of age, male) were intraperitoneally (i.p.) injected once every two weeks with AOM (10 mg/kg body weight) or the PBS vehicle. Seven days after each AOM injection, 2% dextran sulfate sodium (DSS) was given in the drinking water for four days, followed by 3 days of regular water. This cycle was repeated three times. The mice were randomly divided into eight groups (n=5), on day 60 after the first AOM treatment. […] Irinotecan (20 mg/kg), compound 31 (20 mg/kg), and irinotecan+compound 17 (20 mg/kg of irinotecan and 14 mg/kg of compound 17) were injected i.p. q.o.d for two weeks. […] Tumor volumes and body weights were recorded at sacrifice. The tumors were counted under a dissecting microscope, and the area covered by tumors was measured by imaging software (AxioVision LE 4.8.2.0).

HT-29 = experiment: Cytotoxicity by SRB assay in HT-29 cells
Protocol: Cancer cell lines were obtained from ATCC unless otherwise noted. HT-29 and HCT-116 cells were cultured in Dulbecco's Modified Eagle Medium (DMEM, Thermo Fisher Scientific) with 10% fetal bovine serum (FBS, Thermo Fisher Scientific) and 1% antibiotic-antimycotic (Thermo Fisher Scientific).
Briefly, CRC cells were seeded at a density of 5×10^3 cells/well in 96-well microtiter plates (100 μL/well), separated into two groups with or without GSH. After incubation for 24 hours, the culture medium was replaced by fresh medium (100 μL). […] After incubation, 10% cold trichloroacetic acid was gently added to each well and incubated at 4° C. for 1 h. The medium was removed, carefully washed with water, and dried at room temperature. […] The optical density (O.D.) was measured at 510 nm with Multi-Mode Microplate Reader (SpectraMax Paradigm, Beckman Coulter, U.S.). The fraction of cell survival was calculated as follows. Survival fraction=(OD treated−blank)/(OD control−blank). […] Each experiment was repeated three times.

HCT-116 = experiment: Cytotoxicity by SRB assay in HCT-116 cells; type: cell-based, human
Protocol: as §3

[6] = Stability and drug release in GSH (RP-HPLC); type: in vitro ADME
Protocol: […] After incubation for the indicated time, samples were centrifuged to collect the clear supernatant and stored at −30° C. until analysis. RP-HPLC injections were carried out at the specified conditions, and the area of peak was integrated for further calculation.

[7] = Human plasma stability (RP-HPLC); type: in vitro ADME; conditions: 95% human plasma, 37° C.
Protocol: To access human plasma stability, synthesized conjugates were prepared in 95% human plasma. […] The mixture was centrifuged at 13,000 rpm for 5 min. […] For compounds 30 and 31, they were dissolved in DMA and added GSH (11.2 mM or 11.2 μM) solution which was prepared in sodium acetate buffer (10 mM, pH 5.0) in the ratio of 50/40 (v/v, drug in DMA/GSH solution) for final GSH of 5 mM or 5 μM in pH 7.0, respectively. After incubation for the indicated time, samples were centrifuged to collect the clear supernatant and stored at −30° C. until analysis. RP-HPLC injections were carried out at the specified conditions, and the area of peak was integrated for further calculation.

[8] = tested on: CRC cell lines HCT-116 and HT-29; experiment: Cytotoxicity against CRC cell lines, summary over both lines (SRB assay); type: cell-based, human; conditions: for cytotoxicity against CRC cell lines, in words: HCT-116 and HT-29, with or without GSH
Protocol: as §3

pH stability analysis = type: physicochemical
[9] = 5-FU series, 50 mg/kg i.p. once every 3 days for 3 weeks
[10] = Homo sapiens, HT-29, 48 h, read-out: IC50 HT-29 5 mM GSH
[11] = Homo sapiens, HT-29, 48 h, read-out: IC50 HT-29 w/o GSH
[12] = Homo sapiens, HCT-116, 48 h, w/o GSH, read-out: IC50 HCT-116 w/o GSH

- T. of 5-FU ([1]; i.p. injection): 10 min
SMILES: O=c1[nH]cc(F)c(=O)[nH]1 [5-FU, 5-fluorouracil, reference compound]
- mean response rate of patients ([2]; 5-FU-based chemotherapy): approximately 23%
- organ distribution of 5-FU, in words [3]: distributed in stomach, spleen, and kidney
- reduction of tumor volume [4, 9]: 33%
- IC50 (NHDF): 70.4 ± 7.2 µM
- loss of body weight ([5]; free 5-FU 50 mg/kg i.p., after injection): about 10%

- plasma concentration of compound 7 after 5 min, in words ([1]; i.p. 50 mg/kg): below the detection limit
- plasma concentration of 5-FU after 2 h, in words ([1]; i.p. injection): undetectable
- T. of 5-FU ([1]; i.p. injection): 45 min
- time within which 5-FU released from compound 7 was detected in blood ([1]; i.v. 50 mg/kg): ≤ 2 h
- plasma concentration of compound 7 after 30 min, in words ([1]; i.v. 50 mg/kg, lower detection limit=0.003 μg/mL, detectable again after 45 min and 4 h): undetectable
- degradation after 48 h ([6]; 5 μM GSH, 48 h): 30%
- cleavage percentage after 4 hours ([6]; 1 mM GSH): ~10%
- cleavage percentage after 4 hours ([6]; 5 mM GSH): up to 60%
- half-life at 2.5 mM ([6]; PBS containing 1 mM GSH, pH 7.4, half-life at 1 mM GSH, 1 mM GSH, PBS pH 7.4): 10.3 h
- half-life at 2.5 mM ([6]; PBS containing GSH, pH 7.4, highly reductive environments, read-out: half-lives in highly reductive environments): < 5 h
- half-life in human plasma [7]: 13 h
SMILES: O=C(CCCSSCCOCCOCCOc1cc(O)c(C(=O)CCc2ccc(O)cc2)c(O)c1)OCn1cc(F)c(=O)[nH]c1=O [Compound 7, (5-Fluoro-2,4-dioxo-3,4-dihydropyrimidin-1(2H)-yl)methyl 4-((2-(2-(2-(3,5-dihydroxy-4-(3-(4-hydroxyphenyl)propanoyl)phenoxy)ethoxy)ethoxy)ethyl)disulfanyl)butanoate]
- organ distribution of the compound, in words ([3]; 50 mg/kg): distributed in the stomach, colon, heart, and liver
- organ distribution of 5-FU, in words [3]: detected mainly in colon, with small amounts in the kidney and stomach
- IC50 (HT-29; [10]): 3.8 µM
- IC50 (HT-29; [11]): 19.6 ± 3.86 µM
- reduction of tumor volume [4, 9]: 67%
- tumor suppression (tumor area), in words ([4]; 5-FU series, i.p. once every three days for three weeks, compound 7 and 5-FU 50 mg/kg, 5-FU 10 mg/kg + compound 17 30 mg/kg): better tumor suppression than 5-FU
- IC50 (NHDF): 90 ± 2.6 µM
- IC50 (HCT-116; Homo sapiens, HCT-116, read-out: IC50 HCT-116 5 mM GSH, 48 h, 5 mM GSH): 10.5 µM
- IC50 (HCT-116; [12]): 21.2 ± 1.69 µM
- body weight change, in words [5]: without body weight loss; also recorded: no significant change in the body weight

SMILES: O=C(CCc1cn(CCOCCOCCOc2cc(O)c(C(=O)CCc3ccc(O)cc3)c(O)c2)nn1)OCn1cc(F)c(=O)[nH]c1=O [Compound 9]
- IC50 (HT-29; [11]): 85 ± 9.1 µM
- cytotoxicity against CRC cell lines, in words [8]: poorly cytotoxic
- IC50 (HCT-116; [12]): > 100 µM
- release of 5-FU, in words ([6]; 5 mM GSH, after 48 h): Little 5-FU was released
- half-life [7]: 3.6 h
- pH stability, in words (pH stability analysis; pH 4-5): stable
- pH stability, in words (pH stability analysis; pH >7): prone to fully degrade

SMILES: CCc1c2c(nc3ccc(OC(=O)OCCSSCCOCCOCCOc4ccc(O)c(C(=O)CCc5ccc(O)cc5)c4O)cc13)-c1cc3c(c(=O)n1C2)COC(=O)[C@]3(O)CC [Compound 31, (S)-4,11-diethyl-4-hydroxy-3,14-dioxo-3,4,12,14-tetrahydro-1H-pyrano[3′,4′:6,7]indolizino[1,2-b]quinolin-9-yl(2-((2-(2-(2-(2,4-dihydroxy-3-(3-(4-hydroxyphenyl)propanoyl)phenoxy)ethoxy)eyhoxy)ethyl)disulfanyl)ethyl) carbonate]
- IC50 (HT-29; read-out: IC50 HT-29 5 mM GSH, 48 h, prepared in DMA, 5 mM GSH): 0.0114 ± 0.00103 µM
- IC50 (HT-29; read-out: IC50 HT-29 w/o GSH, 48 h, prepared in DMA, w/o GSH): 0.0163 ± 0.00131 µM
- reduction of tumor volume ([4]; SN-38 series, 20 mg/kg i.p. once every two days for two weeks): 70%
- anti-tumor efficacy (tumor area), in words ([4]; SN-38 series, i.p. once every two days for two weeks, 20 mg/kg, irinotecan 20 mg/kg + compound 17 14 mg/kg): better anti-tumor efficacy than irinotecan
- cytotoxicity against CRC cell lines, in words [8]: less or similar cytotoxicity
- IC50 (HCT-116; 72 h, prepared in DMA, w/o GSH, read-out: IC50 HCT-116 w/o GSH): 0.00287 ± 0.00019 µM
- IC50 (HCT-116; read-out: IC50 HCT-116 5 mM GSH, 72 h, prepared in DMA, 5 mM GSH): 0.00259 ± 0.00012 µM
- body weight change, in words [5]: did not decrease the body weight; also recorded: no significant change in the body weight
- degraded after 48 h ([6]; 0 and 5 μM GSH, 48 h): 10%
- degraded to SN-38 after 48 h ([6]; 5 mM GSH, 48 h): over 90%
- half-life in human plasma [7]: 0.833 h

SMILES: CCc1c2c(nc3ccc(OC(=O)N4CCC(N5CCCCC5)CC4)cc13)-c1cc3c(c(=O)n1C2)COC(=O)[C@]3(O)CC [Irinotecan (39), irinotecan, reference compound]
- response rate ([2]; phase II, single-agent, patients resistant to fluorouracil): about 27%
- IC50 (HT-29; Homo sapiens, HT-29, 48 h, read-out: IC50 HT-29): 8.51 ± 1.86 µM
- IC50 (HT-29; [10]): 6.44 ± 0.3 µM
- IC50 (HT-29; [11]): 5.61 ± 0.11 µM
- IC50 ([8]; Homo sapiens, HCT-116 and HT-29, over Tables 1 to 3, read-out: IC50 in CRC cells): 0.3 to 8.5 µM
- IC50 (HCT-116; Homo sapiens, HCT-116, read-out: IC50 HCT-116 5 mM GSH, 72 h, prepared in DMA, 5 mM GSH): 0.32 ± 0.02 µM
- IC50 (HCT-116; Homo sapiens, HCT-116, 48 h, prepared in DMSO, read-out: IC50 HCT-116): 3.69 ± 0.24 µM
- IC50 (HCT-116; Homo sapiens, HCT-116, 72 h, prepared in DMA, w/o GSH, read-out: IC50 HCT-116 w/o GSH): 0.36 ± 0.01 µM
